Laboratory results: patent US20170080087A1, “Combination Therapies for Treating Her2-Positive Cancers that are Resistant to Her2-Targeted Therapies” (MERRIMACK PHARMACEUTICALS, INC., priority 2014, published 2017)

Assays:
[1] = system: BT-474-M3 breast cancer cells; assay: BT-474-M3 breast cancer xenograft after failure to respond to T-DM1; assay type: in vivo, mice
Method: The response to the MM-302 and trastuzumab combination after failure to respond to T-DM1 was evaluated in the BT-474-M3 breast cancer xenograft model.
To obtain the BT-474-M3 HER2-overexpressing human breast cancer cell line, BT-474 cells (ATCC® HTB-20™) were passaged twice through mice with the fastest growing two tumors out of ten selected for ex-vivo propagation during each round of selection. Tumors were excised and cultured ex-vivo to obtain the M3 sub-line that was verified by SNP analysis. (see Noble, Cancer Chemother. Pharmacol. 2009 64:741-51).
Mice were inoculated with BT-474-M3 breast cancer cells (15×10^6; into the mammary fat pad). When tumor volumes reached about 360 mm^3, mice were treated with T-DM1 at either 1, 2, or 4 mg/kg (q1w) (white circles). […] At day 55, the mice were switched from T-DM1 treatment to the combination of MM-302 (3 mg/kg, q1w for a total of 3 doses; day 55, 62 and 69) and trastuzumab (at a loading dose of 8 mg/kg followed by 6 mg/kg q1w) (black squares). Changes in tumor volume as well as in mouse weight were monitored twice a week.

human cardiomyocytes = assay: Binding and uptake into human cardiomyocytes; assay type: cell-based; settings: compared with MM-302 and untargeted pegylated liposomal doxorubicin
Excerpt: Additionally, the number of HER2 receptors needed per cell to optimize the binding of MM-302 is approximately 200,000 HER2 receptors per cell. […] The primary mechanism of action of MM-302 is the use of the HER2 protein to selectively deliver doxorubicin into tumor cells that express greater than approximately 200,000 HER2 receptors per cell.

level of uptake into human cardiomyocytes (human cardiomyocytes)	Compound	tumor response to single agent ([1]; T-DM1 1, 2 or 4 mg/kg q1w)	slope of tumor volume curve (linear regression) ([1]; days 0-55, during T-DM1 treatment)
–	T-DM1	failed to respond	positive slope
relatively much higher	COc1cccc2c1C(=O)c1c(O)c3c(c(O)c1C2=O)C[C@@](O)(C(=O)CO)C[C@@H]3O[C@H]1C[C@H](N)[C@H](O)[C@H](C)O1 [free doxorubicin, (8S,10S)-10-(4-amino-5 hydroxy-6-methyl-tetrahydro-2H-pyran-2-yloxy)-6,8,11-trihydroxy-8-(2-hydroxyacetyl)-1-methoxy-7,8,9,10-tetrahydrotetracene-5,12-dione]	–	–
